In patent US8916584B2 (Vanderbilt University, priority 2010, dated 2014):

The compounds below were run against T1, mGluR4 (Homo sapiens, UniProt Q14833) (assay: mGluR4 potentiation assay (fluorometric plate reader, compound then EC20 agonist); species for the tabulated values not stated). Conditions: EC50 for potentiation of mGluR4; EC20 concentration of agonist.
T1 construct: expressed in transfected cells; host or cells: CHO cells (human mGluR4) or HEK cells (rat mGluR4 with GIRK)
Type: cell-based
Protocol: The disclosed compounds and compositions can be evaluated for their ability to act as a potentiator of metabotropic glutamate receptor activity, in particular mGluR4 activity, by any suitable known methodology known in the art. For example, Chinese Hamster Ovary (CHO) cells transfected with human mGluR4 or HEK cells co-transfected with rat mGluR4 and the G-protein regulated Inwardly Rectifying Potassium channel (GIRK) were plated in clear bottom assay plates for assay in a Hamamatsu FDSS Fluorometric Plate Reader. The cells were loaded with either a Ca2+-sensitive fluorescent dye or the thallium responsive dye and the plates were washed and placed into a suitable kinetic plate reader. For human mGluR4 assays, a fluorescence baseline was established for 3-5 seconds, the disclosed compounds were then added to the cells, and the response in cells was measured. Approximately two and a half minutes later, a concentration of mGluR4 orthosteric agonist (e.g. glutamate or L-AP4) eliciting approximately 20% (EC20) of the maximal agonist response was added to the cells, and the response was measured. Two minutes later, a concentration of mGluR4 agonist (e.g. glutamate or L-AP4) eliciting 80% (EC80) of the maximal agonist response was added to the cells, and the response was measured. For rat mGluR4/GIRK experiments, a baseline was established for approximately five seconds, disclosed compounds were added, and either an EC20 or EC80 concentration of agonist was added approximately two and one half minutes later. Potentiation of the agonist response of mGluR4 by the disclosed compounds was observed as an increase in response to the EC20 concentration of agonist in the presence of compound compared to the response to agonist in the absence of compound. Similarly, antagonism of the agonist response of mGluR4 by the disclosed compounds was observed as a decrease in response to the EC80 concentration of agonist in the presence of compound compared to the response to agonist in the absence of compound.
The above described assay operated in two modes. In the first mode, a range of concentrations of the disclosed compounds are added to cells, followed by a single fixed concentration of agonist. If the compound acts as a potentiatior, an EC50 value for potentiation and a maximum extent of potentiation by the compound at this concentration of agonist is determined by non-linear curve fitting. If the compound acts as a noncompetitive antagonist, an IC50 value is determined by non-linear curve fitting. In the second mode, several fixed concentrations of the disclosed compounds are added to various wells on a plate, followed by a range in concentrations of agonist for each concentration of disclosed compound. The EC50 values for the agonist at each concentration of compound are determined by non-linear curve fitting. A decrease in the EC50 value of the agonist with increasing concentrations of the sample compound (a leftward shift of the agonist concentration-response curve) is an indication of the degree of mGluR4 potentiation at a given concentration of the sample compound. A decrease in the maximal response of the agonist with increasing concentrations of the sample compounds, with or without a rightward shift in agonist potency, is an indication of the degree of noncompetitive antagonism at mGluR4. The second mode also indicates whether the sample compounds also affect the maximum response to mGluR4 to agonists.

T1 sequence (Q14833 33-912): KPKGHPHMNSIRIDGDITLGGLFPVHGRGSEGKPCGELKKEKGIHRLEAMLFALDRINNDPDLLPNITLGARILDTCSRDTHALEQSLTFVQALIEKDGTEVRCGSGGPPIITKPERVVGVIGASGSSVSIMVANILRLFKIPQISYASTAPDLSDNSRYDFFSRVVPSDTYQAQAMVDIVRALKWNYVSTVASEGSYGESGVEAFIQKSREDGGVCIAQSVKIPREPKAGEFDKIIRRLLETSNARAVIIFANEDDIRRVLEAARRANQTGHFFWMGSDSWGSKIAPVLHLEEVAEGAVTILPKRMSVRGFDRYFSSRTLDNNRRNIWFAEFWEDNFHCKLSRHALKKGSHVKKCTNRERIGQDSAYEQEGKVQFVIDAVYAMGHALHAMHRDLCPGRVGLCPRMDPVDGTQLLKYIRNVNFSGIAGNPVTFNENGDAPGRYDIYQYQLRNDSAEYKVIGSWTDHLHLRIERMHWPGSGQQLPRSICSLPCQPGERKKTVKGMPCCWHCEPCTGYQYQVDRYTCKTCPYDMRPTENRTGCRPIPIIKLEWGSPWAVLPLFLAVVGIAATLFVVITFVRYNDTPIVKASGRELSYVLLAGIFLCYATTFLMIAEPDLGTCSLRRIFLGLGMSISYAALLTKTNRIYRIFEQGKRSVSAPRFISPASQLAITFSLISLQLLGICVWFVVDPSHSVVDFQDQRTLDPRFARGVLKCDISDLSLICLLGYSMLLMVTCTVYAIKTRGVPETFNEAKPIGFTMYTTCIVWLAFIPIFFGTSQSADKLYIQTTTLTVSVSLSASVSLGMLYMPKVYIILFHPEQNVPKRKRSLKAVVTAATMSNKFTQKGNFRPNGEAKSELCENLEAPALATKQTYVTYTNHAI

**Q.** How did the EC50 turn out when `Clc1cccc(Nc2noc3cccnc23)c1` [Example 1, N-(3-chlorophenyl)isoxazolo[4,5-b]pyridin-3-amine] was run?
**A.** 209 nM

**Q.** How did the EC50 turn out when `FC(F)Oc1cccc(Nc2noc3cccnc23)c1` [Example 2, N-(3-(difluoromethoxy)phenyl)isoxazolo[4,5-b]pyridin-3-amine] was run?
**A.** 364 nM

**Q.** Which EC50 does the source give for `Fc1ccc(Nc2noc3cccnc23)cc1Cl` [Example 3, N-(3-chloro-4-fluorophenyl)isoxazolo[4,5-b]pyridin-3-amine] here?
**A.** 893 nM

**Q.** How did the EC50 turn out when `Clc1ccc(Nc2noc3cccnc23)cc1Cl` [Example 4, N-(3,4-dichlorophenyl)isoxazolo[4,5-b]pyridin-3-amine] was run?
**A.** 4610 nM

**Q.** With `COc1ccc(Nc2noc3cccnc23)cc1Cl` [Example 5, N-(3-chloro-4-methoxyphenyl)isoxazolo[4,5-b]pyridin-3-amine] as the compound, how does the EC50 read?
**A.** 78.8 nM

**Q.** Which EC50 does the source give for `FC(F)(F)c1cccc(Nc2noc3cccnc23)c1` [Example 6, N-(3-(trifluoromethyl)phenyl)isoxazolo[4,5-b]pyridin-3-amine] here?
**A.** 434 nM

**Q.** Which EC50 does the source give for `COc1cc(Nc2noc3cccnc23)ccc1Cl` [Example 7, N-(4-chloro-3-methoxyphenyl)isoxazolo[4,5-b]pyridin-3-amine] here?
**A.** 2100 nM

**Q.** How did the EC50 turn out when `COc1ccc(Nc2noc3cccnc23)cc1OC` [Example 8, N-(3,4-dimethoxyphenyl)isoxazolo[4,5-b]pyridin-3-amine] was run?
**A.** 4340 nM

**Q.** `Fc1cccc(Nc2noc3cccnc23)c1` [Example 9, N-(3-fluorophenyl)isoxazolo[4,5-b]pyridine-3-amine] was tested. Which EC50 did it give?
**A.** 651 nM

Same assay, conditions: EC50 for potentiation of mGluR4; unit inferred, exponent notation

**Q.** For `O=S(=O)(Cc1ccccc1Cl)n1ccc(Nc2noc3cccnc23)c1` [Example 16, N-(1-((2-chlorobenzyl)sulfonyl)-1H-pyrrol-3-yl)isoxazolo[4,5-b]pyridin-3-amine], which EC50 is on record?
**A.** 89.2 nM

**Q.** How did the EC50 turn out when `c1ccc(Nc2noc3cccnc23)cc1` [Example 17, N-phenylisoxazolo[4,5-b]pyridin-3-amine] was run?
**A.** 2030 nM

**Q.** `FC(F)(F)Oc1cccc(Nc2noc3cccnc23)c1` [Example 18, N-(3-(trifluoromethoxy)phenyl)isoxazolo[4,5-b]pyridin-3-amine] was tested. Which EC50 did it give?
**A.** 1170 nM

**Q.** Which EC50 does the source give for `c1cnc2c(Nc3ccc4c(c3)OCO4)noc2c1` [Example 19, N-(benzo[d][1,3]dioxol-5-yl)isoxazolo[4,5-b]pyridin-3-amine] here?
**A.** 1000 nM

**Q.** With `Cc1cc(Nc2noc3cccnc23)ccc1Cl` [Example 20, N-(4-chloro-3-methylphenyl)isoxazolo[4,5-b]pyridin-3-amine] as the compound, how does the EC50 read?
**A.** 590 nM

**Q.** `CC(=O)c1cccc(Nc2noc3cccnc23)c1` [Example 22, l-(3-(isoxazolo[4,5-b]pyridin-3-ylamino)phenyl)ethanone] was tested. Which EC50 did it give?
**A.** 3660 nM

**Q.** For `Fc1ccc(Nc2noc3cccnc23)cc1F` [Example 23, N-(3,4-difluorophenyl)isoxazolo[4,5-b]pyridin-3-amine], which EC50 is on record?
**A.** 338 nM

**Q.** With `COc1cc(Nc2noc3cccnc23)ccc1F` [Example 24, N-(4-fluoro-3-methoxyphenyl)isoxazolo[4,5-b]pyridin-3-amine] as the compound, how does the EC50 read?
**A.** 468 nM

**Q.** How did the EC50 turn out when `FC(F)C(F)(F)Oc1cccc(Nc2noc3cccnc23)c1` [Example 26] was run?
**A.** 4040 nM

**Q.** With `Fc1ccc2onc(Nc3cccc(Cl)c3)c2n1` [Example 27, N-(3-chlorophenyl)-5-fluoroisoxazolo[4,5-b]pyridin-3-amine] as the compound, how does the EC50 read?
**A.** 153 nM

**Q.** Which EC50 does the source give for `Clc1cccc(Nc2noc3ccccc23)c1` [Example 30, N-(3-chlorophenyl)benzo[d]isoxazol-3-amine] here?
**A.** 1140 nM

**Q.** Which EC50 does the source give for `Fc1cccc(Nc2noc3ccccc23)c1` [Example 31, N-(3-fluorophenyl)benzo[d]isoxazol-3-amine] here?
**A.** 4090 nM

**Q.** With `COc1ccc(Nc2noc3ccccc23)cc1Cl` [Example 33, N-(3-chloro-4-methoxyphenyl)benzo[d]isoxazol-3-amine] as the compound, how does the EC50 read?
**A.** 7030 nM
